Source: patent publication US9801844B2, “Methods and compositions for the treatment of cancer” (priority 2012, dated 2017)
Several values for one entry are separate records, joined by “and”; a condition that tells them apart may be missing. Identical values can stand only once. Like-named read-outs stand apart in the source and are kept apart here.

Columns and labels:
[1] = system: SUM149 cells; assay: Real-time RT-PCR of specific mRNAs in SUM149 cells; format: cell-based; conditions: 4 μg/ml, 6 h
Protocol: Real-time RT-PCR analysis was performed on 2 technical replicates of at least 2 biological sample replicates.
Real-time quantitative RT-PCR methods were used to determine the nature of the RNA induced by treatment with CA, using the Real Time PCR machine Stratagene MX3005P QPCR System.
Real-time RT-PCR analysis was performed to examine the mode of action of CA. In MDA-MB-468 cells, CA at 4 μg/ml induced an increase in expression of RNA of the tumor suppressor gene CDKN1A; for MDA-MB-468 cells (6 h: 1.51-logfold; 24 h: 1.61-logfold) (FIG. 3A); for SUM149 cells (6 h: 2.7-logfold). CA had little effect on the expression of the tumor suppressor gene BRCA1.

[2] = system: MCF7 (ER positive, Her2 low) cells; assay: MTT cell proliferation assay on MCF7 cells; format: cell-based; conditions: Homo sapiens, read-out: IC50 growth inhibition
Protocol: (§1) MDA-MB-453 (ER negative, Her2 overexpressing), MDA-MB-468 (triple negative) and MCF7 (ER positive, Her2 low) cells, HT29 (p53 positive human colon cancer cells) (ATCC, Manassas, Va.) were grown in Dulbecco's Modified Eagle's medium (DMEM) (Gibco BRL Life Technologies, Inc., Rockville, Md.) containing 10% (v/v) fetal bovine serum (FBS) (Gibco BRL) at 37° C., 5% C02. SUM 149 (Her2 overexpressing, ER low) (the gift of Dr. R. Parsons, Columbia University Medical Center, New York, N.Y.) were cultivated in Ham's F-12 medium with 10% FBS. MCF7 and MCF7/Her2-18 (MCF7 cells transfected with a full length Her2 cDNA coding region, 45-fold increase Her2) were the kind gift of Dr. Dennis Slamon (Los Angeles, Calif.). These cells were maintained in RPMI supplemented with 10% FBS plus glutamine (1%) and PSF (1%) (Gibco, Rockville Md.).
(§2) MTT assay: the MTT {3-(4,5-dimethyl-2-thiazol)-2,5-diphenyl-2H tetrazolilum bromide} (Dojindo; Tokyo, Japan) cell proliferation assay system (Roche Diagnostic, Mannheim, Germany) was used to determine the sensitivity of the various cell lines to agents. Cells were seeded at 1×10^4 cells/well in 96-well plates and allowed to attach for 24 h. […] The cells were treated for 96 or 120 h, after which they were incubated with MTT reagents and the absorbance read at 650 and 575 nm. For cell growth assays, the data are expressed as mean+/−standard deviation. […]

[3] = system: HT29 human colon cancer cells; assay: Proliferation assay (MTT) on HT29 cells; format: cell-based; conditions: 1 μg/ml, HT29, 96 h
Protocol: The HT29 cells were maintained in McCoy's Media containing 10% (v/v) fetal bovine serum (FBS) (Gibco BRL) at 37° C., 5% C02.
(§3) MTT assay: the MTT {3-(4,5-dimethyl-2-thiazol)-2,5-diphenyl-2H tetrazolilum bromide} (Dojindo; Tokyo, Japan) cell proliferation assay system (Roche Diagnostic, Mannheim, Germany) was used to determine the sensitivity of the various cell lines to agents. Cells were seeded at 1×10^4 cells/well in 96-well plates and allowed to attach for 24 h. The medium was replaced with fresh medium containing DMSO or compound. The cells were treated for 96 or 120 h, after which they were incubated with MTT reagents and the absorbance read at 650 and 575 nm. For cell growth assays, the data are expressed as mean+/−standard deviation. Control and treated cells were compared using the student's t-test (p<0.05).
HT29 (p53 positive human colon cancer cells), as well as MDA-MB-453 Her2 overexpressing ER-negative human breast cancer cells are treated with increasing concentrations of the liposome carnosic acid complex and carnosic acid.
Cells were exposed to increasing concentrations of agents for 96 h and the number of viable cells determined by the MTT assay.

[4] = system: ER-negative SUM149 cells; assay: MTT cell proliferation assay on SUM149 cells; format: cell-based; conditions: read-out: IC50 growth inhibition
Protocol: as §1, §2

[5] = system: SKOV3 (Her2 overexpressing) human ovarian cancer cells; assay: MTT cell proliferation assay on SKOV3 cells; format: cell-based; conditions: SKOV3, 96 h
Protocol: SKOV3 (Her2 overexpressing) ovarian cancer cells (ATCC, Manassas, Va.), were grown in McCoy's media (Gibco BRL Life Technologies, Inc., Rockville, Md.) containing 10% (v/v) fetal bovine serum (FBS) (Gibco BRL) at 37° C., 5% C02, plus Penn-Strep (Sigma).
The MTT [3-(4,5-dimethyl-2-thiazol)-2,5-diphenyl-2H tetrazolilum bromide] (Dojindo; Tokyo, Japan) cell proliferation assay system (Roche Diagnostic, Mannheim, Germany) was used to determine the sensitivity of the cell lines to agents. Cells were seeded at 1×10^4 cells/well in 96-well plates and allowed to attach for 24 h. The medium was replaced with fresh medium containing DMSO or compound. The cells were treated for 96 h, after which the media was replaced with fresh media; the cells were incubated with MTT reagents and the absorbance read at 650 and 575 nm. The 650 reading was subtracted from the 575 reading to correct for background absorbance.

[6] = system: MDA-MB-453 human breast cancer cells; assay: Cell cycle analysis by DNA flow cytometry; format: cell-based; conditions: 48 h
Protocol: For cell cycle analysis the cells were plated (3×105) onto 6 cm dishes and allowed to attach for 24 h. Then the medium was replaced with DMEM containing 10% FBS and DMSO or agents. After 48 h, the cells were analyzed by DNA flow cytometry.
To examine the effects of rosemary on the cell cycle, MDA-MB-453 human breast cancer cells were treated with rosemary extract enriched for CA (50%) at 40 or 80 μg/ml and purified CA at 10, 20 or 40 μg/ml for 48 h. The cells were then stained with propidium iodide and the stained cells were analyzed by DNA flow cytometry (Table 1).
MDA-MB-453 cells were treated with 0, 10, 20, or 40 μg/ml of carnosic acid or 40, 80 μg/ml of rosemary extract (carnosic acid: 50%), and analyzed at 48 hr by DNA flow cytometry. The values indicate the % of cells in the cell cycle phases.

[7] = system: MDA-MB-468 triple negative breast cancer cells; assay: MTT cell proliferation assay on MDA-MB-468 cells; format: cell-based, human; conditions: for IC50: read-out: IC50 growth inhibition
Protocol: as §1, §3
To determine the Combination Index (CI), cells were treated with all combinations of 4 or 5 concentrations of each of the agents tested and a solvent control. The results of the MTT assay were analyzed for possible synergistic effects using the median effect principle. Variable ratios of drugs were employees and mutually exclusive equations were assumed.

[8] = MDA-MB-468 cells, MTT assay, listed as CA

CC(C)c1cc2c(c(O)c1O)[C@@]1(C(=O)O)CCCC(C)(C)[C@@H]1CC2 [carnosic acid]
increase in expression of RNA of CDKN1A [1]: 2.7 logfold
IC50 [2]: 25 µg/mL and 75 µM
% proliferation [3]: 99.3%
IC50 [4]: 1.7 µg/mL and 5.1 µM
% cell proliferation ([5]; 5 μg/ml): 105.3%
% cell proliferation ([5]; 10 μg/ml): 56.7%
% cell proliferation ([5]; 15 μg/ml): 8.1%
% cell proliferation ([5]; 20 μg/ml): 6.7%
IC50 ([5]; Homo sapiens, SK-OV-3, MTT, read-out: IC50, concentration that caused 50% inhibition of cell growth): ~10.5 µg/mL and ~31.6 µM
% of Cells G1 ([6]; 10 ug/ml): 51.2%
% of Cells G2 ([6]; 10 ug/ml): 11.8%
% of Cells Sub G1 ([6]; 10 ug/ml): 1.5%
% of Cells S ([6]; 10 ug/ul): 31.2%
% of Cells G1 ([6]; 20 ug/ml): 71.9%
% of Cells G2 ([6]; 20 ug/ml): 9.1%
% of Cells Sub G1 ([6]; 20 ug/ml): 1.7%
% of Cells S ([6]; 20 ug/ul): 15.3%
% of Cells G1 ([6]; 40 ug/ml): 50.8%
% of Cells G2 ([6]; 40 ug/ml): 13.9%
% of Cells Sub G1 ([6]; 40 ug/ml): 1.6%
% of Cells S ([6]; 40 ug/ul): 28.9%
IC50 ([7]; Homo sapiens, MDA-MB-468, MDA-MB-468 cells, MTT assay): 2 µg/mL and 6 µM
viability at 6 µM ([7]; Homo sapiens, MDA-MB-468, CA 2 μg/ml (6 μM) alone, read-out: percent viable cells): 89.4%
IC50 growth inhibition [7, 8]: 3 µg/mL
IC50 [7, 8]: 9 µM
